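Five compound concentrations were applied to cells in 96-well plates for 48 hours; endpoints were derived by simple linear interpolation of the resulting dose-response curve. The concentration for 50% growth inhibition is given as GI50.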 Activity calls are given as the source filed them. Rule as the data show it: active = GI50 up to about 1.1 µM and inactive = higher.
What was measured:
Assay in all cases: NCI tumour cell line growth inhibition, 48 h
786-0 = tested on: 786-0
NCI-H460 = tested on: NCI-H460
NCI/ADR-RES = tested on: NCI/ADR-RES
SK-OV-3 = tested on: SK-OV-3
UO-31 = tested on: UO-31
SK-MEL-5 = tested on: SK-MEL-5
Malme-3M = tested on: Malme-3M
TK-10 = tested on: TK-10
LOX IMVI = tested on: LOX IMVI
A498 = tested on: A498
SNB-19 = tested on: SNB-19
SF-268 = tested on: SF-268
K562 = tested on: K562
NCI-H522 = tested on: NCI-H522
UACC-257 = tested on: UACC-257
SK-MEL-28 = tested on: SK-MEL-28
SF-539 = tested on: SF-539
KM12 = tested on: KM12
MOLT-4 = tested on: MOLT-4
OVCAR-4 = tested on: OVCAR-4
U-251 = tested on: U-251
HT-29 = tested on: HT-29
CAKI-1 = tested on: CAKI-1
HCC 2998 = tested on: HCC 2998
HOP-92 = tested on: HOP-92
HOP-62 = tested on: HOP-62
SW-620 = tested on: SW-620
MDA-N = tested on: MDA-N
PC-3 = tested on: PC-3
OVCAR-8 = tested on: OVCAR-8
UACC-62 = tested on: UACC-62
HCT-116 = tested on: HCT-116
MDA-MB-435 = tested on: MDA-MB-435
DU-145 = tested on: DU-145
ACHN = tested on: ACHN
OVCAR-3 = tested on: OVCAR-3
T47D = tested on: T47D
SF-295 = tested on: SF-295
SNB-75 = tested on: SNB-75
SK-MEL-2 = tested on: SK-MEL-2
NCI-H226 = tested on: NCI-H226
SN12C = tested on: SN12C
M14 = tested on: M14
COLO 205 = tested on: COLO 205
HCT-15 = tested on: HCT-15
MDA-MB-231 = tested on: MDA-MB-231
EKVX = tested on: EKVX
IGROV-1 = tested on: IGROV-1
CCRF-CEM = tested on: CCRF-CEM
Hs-578T = tested on: Hs-578T
OVCAR-5 = tested on: OVCAR-5
NCI-H23 = tested on: NCI-H23
A549 = tested on: A549
SR = tested on: SR
HL-60 = tested on: HL-60
RXF 393 = tested on: RXF 393
MCF7 = tested on: MCF7
RPMI-8226 = tested on: RPMI-8226

Measured: GI50

CCOC(=O)CNc1nc(=O)c2c(=O)oc(Cl)cc2o1
inactive: 786-0 10.2 µM | NCI-H460 16.6 µM | NCI/ADR-RES 21.4 µM | SK-OV-3 > 100 µM | UO-31 12.8 µM | SK-MEL-5 27.1 µM | Malme-3M 11.4 µM | TK-10 13.6 µM | LOX IMVI 10.5 µM | A498 17.5 µM | SNB-19 33.3 µM | SF-268 14.7 µM | K562 6.25 µM | NCI-H522 2.7 µM | UACC-257 17.5 µM | SK-MEL-28 22.9 µM | SF-539 6.79 µM | KM12 22.1 µM | MOLT-4 12.6 µM | OVCAR-4 17.6 µM | U-251 24.8 µM | HT-29 10.7 µM | CAKI-1 12.9 µM | HCC 2998 15.6 µM | HOP-92 3.69 µM | HOP-62 25.4 µM | SW-620 8.81 µM | MDA-N 14.2 µM | PC-3 13.2 µM | OVCAR-8 11.2 µM | UACC-62 18.2 µM | HCT-116 12.1 µM | MDA-MB-435 15.7 µM | DU-145 29 µM | ACHN 13.5 µM | OVCAR-3 12.9 µM | T47D 18.9 µM | SF-295 25 µM | SNB-75 11 µM | SK-MEL-2 17.2 µM | NCI-H226 > 100 µM | SN12C 18.4 µM | M14 17.9 µM | COLO 205 16.7 µM | MDA-MB-231 21.6 µM | EKVX 16.1 µM | IGROV-1 10.1 µM | CCRF-CEM 5.82 µM | Hs-578T 19.3 µM | OVCAR-5 18.5 µM | NCI-H23 19.1 µM | A549 18.3 µM
10 µM: HCT-15

CC(=O)c1c2c(cc3c1CC1(Cc4cc5c(cc4C1)CCCC5)C3)CCCC2
inactive: 786-0 > 100 µM | NCI/ADR-RES > 100 µM | SK-OV-3 > 100 µM | SK-MEL-5 10.3 µM | Malme-3M 94.8 µM | TK-10 > 100 µM | LOX IMVI 55.1 µM | SR 2.05 µM | HL-60 7.85 µM | A498 56.6 µM | K562 9.66 µM | RXF 393 > 100 µM | NCI-H522 20.9 µM | UACC-257 13 µM | SF-539 > 100 µM | KM12 > 100 µM | MOLT-4 12.1 µM | OVCAR-4 8.39 µM | U-251 > 100 µM | HT-29 50.9 µM | HCC 2998 > 100 µM | HOP-92 > 100 µM | HOP-62 > 100 µM | MDA-N 16.4 µM | PC-3 51.4 µM | OVCAR-8 > 100 µM | UACC-62 > 100 µM | HCT-116 > 100 µM | MDA-MB-435 16.9 µM | ACHN 6.49 µM | OVCAR-3 27.2 µM | T47D > 100 µM | SF-295 37.2 µM | SK-MEL-2 18.8 µM | MCF7 19.4 µM | NCI-H226 43.5 µM | SN12C > 100 µM | M14 > 100 µM | COLO 205 77.1 µM | RPMI-8226 11.8 µM | MDA-MB-231 > 100 µM | EKVX > 100 µM | IGROV-1 45 µM | Hs-578T > 100 µM | OVCAR-5 > 100 µM | NCI-H23 68.5 µM | A549 > 100 µM
36.1 µM: HCT-15
active: UO-31 0.438 µM | SNB-75 < 0.01 µM

COC1(OC)N=C(N)C2(C#N)C(C)CC(=O)N(N(C)C)C12C#N (centres undefined)
> 100 µM: HCT-15
inactive: 786-0 > 100 µM | NCI/ADR-RES > 100 µM | SK-OV-3 > 100 µM | UO-31 > 100 µM | SK-MEL-5 > 100 µM | Malme-3M > 100 µM | TK-10 > 100 µM | LOX IMVI > 100 µM | SR > 100 µM | HL-60 > 100 µM | A498 > 100 µM | SNB-19 > 100 µM | SF-268 > 100 µM | K562 > 100 µM | RXF 393 > 100 µM | NCI-H522 > 100 µM | UACC-257 > 100 µM | SK-MEL-28 > 100 µM | SF-539 > 100 µM | KM12 > 100 µM | MOLT-4 > 100 µM | U-251 > 100 µM | HT-29 > 100 µM | CAKI-1 > 100 µM | HCC 2998 > 100 µM | HOP-92 > 100 µM | HOP-62 > 100 µM | SW-620 > 100 µM | PC-3 > 100 µM | OVCAR-8 > 100 µM | UACC-62 > 100 µM | HCT-116 > 100 µM | MDA-MB-435 > 100 µM | DU-145 > 100 µM | ACHN > 100 µM | T47D > 100 µM | SF-295 > 100 µM | SNB-75 40.5 µM | SK-MEL-2 > 100 µM | MCF7 > 100 µM | NCI-H226 > 100 µM | SN12C > 100 µM | M14 > 100 µM | COLO 205 > 100 µM | RPMI-8226 > 100 µM | MDA-MB-231 > 100 µM | EKVX > 100 µM | IGROV-1 > 100 µM | CCRF-CEM > 100 µM | Hs-578T > 100 µM | OVCAR-5 > 100 µM | NCI-H23 > 100 µM | A549 > 100 µM

O=C1Cc2c([nH]c3ccc(Cl)cc23)-c2ccccc2N1
inactive: 786-0 > 100 µM | NCI-H460 > 100 µM | NCI/ADR-RES > 100 µM | SK-OV-3 > 100 µM | UO-31 > 100 µM | SK-MEL-5 > 100 µM | Malme-3M > 100 µM | TK-10 > 100 µM | LOX IMVI 2.13 µM | A498 > 100 µM | SNB-19 > 100 µM | SF-268 > 100 µM | NCI-H522 > 100 µM | SK-MEL-28 > 100 µM | OVCAR-4 > 100 µM | U-251 > 100 µM | HOP-92 > 100 µM | MDA-N > 100 µM | OVCAR-8 > 100 µM | UACC-62 74.6 µM | HCT-116 3.17 µM | MDA-MB-435 > 100 µM | ACHN > 100 µM | T47D > 100 µM | SF-295 > 100 µM | SNB-75 > 100 µM | MCF7 > 100 µM | NCI-H226 > 100 µM | SN12C > 100 µM | M14 > 100 µM | COLO 205 > 100 µM | RPMI-8226 > 100 µM | MDA-MB-231 > 100 µM | IGROV-1 > 100 µM | Hs-578T > 100 µM | NCI-H23 > 100 µM | A549 > 100 µM

— ChEMBL document CHEMBL1201862, “PubChem BioAssay data set” (2004)
